Legend:
Assay in all cases: Radioligand Binding Assay
[1] = target: T1, Gamma-aminobutyric acid receptor subunit alpha-1 [28-456]/beta-2 [26-512]/gamma-2 [40-467,R224C] (Homo sapiens, UniProt P14867+P18507+P47870, R224C); details: 25 °C
T1 construct: 28-456; 26-512; 40-467

[2] = target: T2, Gamma-aminobutyric acid receptor subunit alpha-1 [28-456]/beta-2 [26-512]/gamma-2 [40-467,R183C] (Homo sapiens, UniProt P14867+P18507+P47870, R183C); details: 25 °C
T2 construct: 28-456; 26-512; 40-467

[3] = target: T3, Gamma-aminobutyric acid receptor subunit alpha-1 [V202C]/beta-2 [26-512]/gamma-2 [40-467] (Homo sapiens, UniProt P14867+P18507+P47870, V202C); details: 25 °C
T3 construct: 26-512; 40-467

[4] = target: T4, Gamma-aminobutyric acid receptor subunit alpha-1 [28-456]/beta-2 [26-512]/gamma-2 [40-467,L179C] (Homo sapiens, UniProt P14867+P18507+P47870, L179C); details: 25 °C
T4 construct: 28-456; 26-512; 40-467

[5] = target: T5, Gamma-aminobutyric acid receptor subunit alpha-6 [20-453]/beta-2 [26-512]/gamma-2 [40-467] (Homo sapiens, UniProt P18507+P47870+Q16445); details: pH 7.4; 22 °C
T5 construct: 20-453; 26-512; 40-467

[6] = target: T6, Gamma-aminobutyric acid receptor subunit alpha-1 [28-456]/beta-2 [26-512]/gamma-2 [40-467,T120C] (Homo sapiens, UniProt P14867+P18507+P47870, T120C); details: 25 °C
T6 construct: 28-456; 26-512; 40-467

[7] = target: T7, Gamma-aminobutyric acid receptor subunit alpha-3 [29-492]/beta-2 [26-512]/gamma-2 [40-467] (Homo sapiens, UniProt P18507+P34903+P47870); details: pH 7.4; 22 °C
T7 construct: 29-492; 26-512; 40-467

[8] = target: T8, Gamma-aminobutyric acid receptor subunit alpha-1 [28-456]/beta-2 [26-512]/gamma-2 [40-467,T165C] (Homo sapiens, UniProt P14867+P18507+P47870, T165C); details: 25 °C
T8 construct: 28-456; 26-512; 40-467

[9] = target: T9, Gamma-aminobutyric acid receptor subunit alpha-1 [V211C]/beta-2 [26-512]/gamma-2 [40-467] (Homo sapiens, UniProt P14867+P18507+P47870, V211C); details: 25 °C
T9 construct: 26-512; 40-467

[10] = target: T10, Gamma-aminobutyric acid receptor subunit alpha-1 [28-456]/beta-2 [26-512]/gamma-2 [40-467,T181C] (Homo sapiens, UniProt P14867+P18507+P47870, T181C); details: 25 °C
T10 construct: 28-456; 26-512; 40-467

[11] = target: T11, Gamma-aminobutyric acid receptor subunit alpha-1 [A160C]/beta-2 [26-512]/gamma-2 [40-467] (Homo sapiens, UniProt P14867+P18507+P47870, A160C); details: 25 °C
T11 construct: 26-512; 40-467

[12] = target: T12, Gamma-aminobutyric acid receptor subunit alpha-1 [T206C]/beta-2 [26-512]/gamma-2 [40-467] (Homo sapiens, UniProt P14867+P18507+P47870, T206C); details: 25 °C
T12 construct: 26-512; 40-467

[13] = target: T13, Gamma-aminobutyric acid receptor subunit alpha-1 [28-456]/beta-2 [26-512]/gamma-2 [40-467,A118C] (Homo sapiens, UniProt P14867+P18507+P47870, A118C); details: 25 °C
T13 construct: 28-456; 26-512; 40-467

[14] = target: T14, Gamma-aminobutyric acid receptor subunit alpha-1 [28-456]/beta-2 [26-512]/gamma-2 [40-467,R233C] (Homo sapiens, UniProt P14867+P18507+P47870, R233C); details: 25 °C
T14 construct: 28-456; 26-512; 40-467

[15] = target: T15, Gamma-aminobutyric acid receptor subunit alpha-1 [G200C]/beta-2 [26-512]/gamma-2 [40-467] (Homo sapiens, UniProt P14867+P18507+P47870, G200C); details: 25 °C
T15 construct: 26-512; 40-467

[16] = target: T16, Gamma-aminobutyric acid receptor subunit alpha-1 [28-456]/beta-2 [26-512]/gamma-2 [40-467,M169C] (Homo sapiens, UniProt P14867+P18507+P47870, M169C); details: 25 °C
T16 construct: 28-456; 26-512; 40-467

[17] = target: T17, Gamma-aminobutyric acid receptor subunit alpha-1 [28-456]/beta-2 [26-512]/gamma-2 [40-467] (Homo sapiens, UniProt P14867+P18507+P47870); details: pH 7.4; 22 °C
T17 construct: 28-456; 26-512; 40-467

[18] = target: T18, Gamma-aminobutyric acid receptor subunit alpha-1 [T162C]/beta-2 [26-512]/gamma-2 [40-467] (Homo sapiens, UniProt P14867+P18507+P47870, T162C); details: 25 °C
T18 construct: 26-512; 40-467

[19] = target: T19, Gamma-aminobutyric acid receptor subunit alpha-1 [28-456]/beta-2 [26-512]/gamma-2 [40-467,D95C] (Homo sapiens, UniProt P14867+P18507+P47870, D95C); details: 25 °C
T19 construct: 28-456; 26-512; 40-467

[20] = target: T20, Gamma-aminobutyric acid receptor subunit alpha-1 [28-456]/beta-2 [26-512]/gamma-2 [40-467,R171C] (Homo sapiens, UniProt P14867+P18507+P47870, R171C); details: 25 °C
T20 construct: 28-456; 26-512; 40-467

[21] = target: T21, Gamma-aminobutyric acid receptor subunit alpha-1 [S204C]/beta-2 [26-512]/gamma-2 [40-467] (Homo sapiens, UniProt P14867+P18507+P47870, S204C); details: 25 °C
T21 construct: 26-512; 40-467

[22] = target: T22, Gamma-aminobutyric acid receptor subunit alpha-4 [36-554]/beta-2 [26-512]/gamma-2 [40-467] (Homo sapiens, UniProt P18507+P47870+P48169); details: pH 7.4; 22 °C
T22 construct: 36-554; 26-512; 40-467

[23] = target: T23, Gamma-aminobutyric acid receptor subunit alpha-5 [32-462]/beta-2 [26-512]/gamma-2 [40-467] (Homo sapiens, UniProt P18507+P31644+P47870); details: pH 7.4; 22 °C
T23 construct: 32-462; 26-512; 40-467

[24] = target: T24, Gamma-aminobutyric acid receptor subunit alpha-1 [28-456]/beta-2 [26-512]/gamma-2 [40-200],P14867[176-456] (Homo sapiens, UniProt P14867+P18507+P47870); details: 25 °C
T24 construct: 28-456; 26-512; 40-200; 176-456

[25] = target: T25, Gamma-aminobutyric acid receptor subunit alpha-2 [29-451]/beta-2 [26-512]/gamma-2 [40-467] (Homo sapiens, UniProt P18507+P47869+P47870); details: pH 7.4; 22 °C
T25 construct: 29-451; 26-512; 40-467

[26] = target: T26, Gamma-aminobutyric acid receptor subunit alpha-1 [S205C]/beta-2 [26-512]/gamma-2 [40-467] (Homo sapiens, UniProt P14867+P18507+P47870, S205C); details: 25 °C
T26 construct: 26-512; 40-467

[27] = target: T27, Gamma-aminobutyric acid receptor subunit alpha-1 [G157C]/beta-2 [26-512]/gamma-2 [40-467] (Homo sapiens, UniProt P14867+P18507+P47870, G157C); details: 25 °C
T27 construct: 26-512; 40-467

[28] = target: T28, Gamma-aminobutyric acid receptor subunit alpha-1 [F99C]/beta-2 [26-512]/gamma-2 [40-467] (Homo sapiens, UniProt P14867+P18507+P47870, F99C); details: pH 7.4; 22 °C
T28 construct: 26-512; 40-467

CN1CCN(C(=O)Oc2c3[nH]ccnc-3c(=O)n2-c2ccc(Cl)cn2)CC1 [ESZ]
Ki [1]: 70.9 nM
Ki [2]: 174 nM
Ki [3]: 249 nM
Ki [4]: 46.3 nM
Ki [5]: > 15000 nM
Ki [6]: 75.2 nM
Ki [7]: 162 nM
Ki [8]: 71.9 nM
Ki [9]: 62.4 nM
Ki [10]: 503 nM
Ki [11]: 60.4 nM
Ki [12]: 0.83 nM
Ki [13]: 393 nM
Ki [14]: 67 nM
Ki [15]: 119 nM
Ki [16]: 102 nM
Ki [17]: 50.1 nM
Ki [18]: 33.8 nM
Ki [19]: 82.4 nM
Ki [20]: 110 nM
Ki [21]: 57.9 nM
Ki [22]: > 15000 nM
Ki [23]: 102 nM
Ki [24]: 22.4 nM
Ki [25]: 114 nM
Ki [26]: 34.9 nM
Ki [27]: 2100 nM
Ki [28]: 407 nM

Cc1ccc(-c2nc3ccc(C)cn3c2CC(=O)N(C)C)cc1 [Ambien]
Ki [22]: > 15000 nM
Ki [23]: > 15000 nM

Source: BindingDB's records for doi:10.1021/jm800889m (University of Wisconsin At Madison, 2008)
